Results taken from patent US6737383B1, “Herbicidal oxadiazolidines” (priority 1999, dated 2004).

Tests used:
[1] = system: rape; test: Test B pre/postemergence rape; type: in vivo, Brassica napus; settings: for Rape plant response rating (0 to 10 scale): 0 is no effect
Procedure, shortened: (§1)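 Herbicidal effect was estimated by eye on a ten-point control scale after plants spent twelve to sixteen days in a greenhouse following soil or foliar treatment. Foliar sprays targeted plants at one to four leaves; all doses were formulated in a non-phytotoxic solvent with surfactant.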

[2] = system: morningglory; test: Test B pre/postemergence morningglory; type: in vivo, Ipomoea hederacea; settings: for Morningglory plant response rating (0 to 10 scale): 0 is no effect
Procedure, shortened: as §1

[3] = system: velvetleaf; test: Test B pre/postemergence velvetleaf; type: in vivo, Abutilon theophrasti; settings: for Velvetleaf plant response rating (0 to 10 scale): 0 is no effect
Procedure, shortened: as §1

[4] = system: surinam grass; test: Test B pre/postemergence surinam grass; type: in vivo, Brachiaria decumbens; settings: for B. signalgrass plant response rating (0 to 10 scale): 0 is no effect
Procedure, shortened: as §1

[5] = system: giant foxtail; test: Test B pre/postemergence giant foxtail; type: in vivo, Setaria faberii; settings: for Giant foxtail plant response rating (0 to 10 scale): 0 is no effect
Procedure, shortened: as §1

[6] = system: bedstraw; test: Test B pre/postemergence bedstraw; type: in vivo, Galium aparine; settings: for Bedstraw plant response rating (0 to 10 scale): 0 is no effect
Procedure, shortened: as §1

[7] = system: wheat; test: Test B pre/postemergence wheat; type: in vivo, Triticum aestivum; settings: for Wheat plant response rating (0 to 10 scale): 0 is no effect
Procedure, shortened: as §1

[8] = system: cocklebur; test: Test B pre/postemergence cocklebur; type: in vivo, Xanthium strumarium; settings: for Cocklebur plant response rating (0 to 10 scale): 0 is no effect
Procedure, shortened: as §1

[9] = system: pigweed; test: Test B pre/postemergence pigweed; type: in vivo, Amaranthus retroflexus; settings: for Redroot pigweed plant response rating (0 to 10 scale): 0 is no effect
Procedure, shortened: as §1

[10] = system: purple nutsedge; test: Test B pre/postemergence purple nutsedge; type: in vivo, Cyperus rotundus; settings: for Nutsedge plant response rating (0 to 10 scale): 0 is no effect
Procedure, shortened: as §1

[11] = system: soybean; test: Test B pre/postemergence soybean; type: in vivo, Glycine max; settings: for Soybean plant response rating (0 to 10 scale): 0 is no effect
Procedure, shortened: as §1

[12] = system: blackgrass; test: Test B pre/postemergence blackgrass; type: in vivo, Alopecurus myosuroides; settings: for Blackgrass plant response rating (0 to 10 scale): 0 is no effect
Procedure, shortened: as §1

[13] = system: wild oat; test: Test B pre/postemergence wild oat; type: in vivo, Avena fatua; settings: for Wild oats plant response rating (0 to 10 scale): 0 is no effect
Procedure, shortened: as §1

[14] = Postemergence, Rate 125 g/ha, scale of 0 to 10 where 0 is no effect and 10 is complete control
[15] = Preemergence, Rate 62 g/ha, scale 0 to 10 (0 no effect, 10 complete control)
[16] = Preemergence, Rate 125 g/ha, 10 is complete control
[17] = Preemergence, Rate 250 g/ha, scale 0 to 10, 0 is no effect, 10 is complete control
[18] = Preemergence, Rate 500 g/ha, scale 0 to 10 (0 no effect, 10 complete control)
[19] = Rate 62 g/ha, Postemergence, scale of 0 to 10 where 0 is no effect and 10 is complete control
[20] = Rate 250 g/ha, Postemergence, scale 0 to 10, 0 is no effect, 10 is complete control
[21] = Rate 500 g/ha, Postemergence, scale 0 to 10
[22] = Rate 500 g/ha, Postemergence, scale 0 to 10, 0 no effect, 10 complete control
[23] = Preemergence, Rate 62 g/ha, scale of 0 to 10 where 0 is no effect and 10 is complete control

Cc1ccc(N(C(=O)n2oc(=O)n(C(C)C)c2=O)C(C)C)cc1 [Compound 132]
2: Morningglory plant response rating [2, 18] | Velvetleaf plant response rating [3, 14] | Velvetleaf plant response rating [3, 19] | Plant response rating, Bedstraw [6, 20] | Wheat plant response rating [7, 14] | Wheat plant response rating [7, 17] | Plant response rating, Wheat [7, 20] | Redroot pigweed plant response rating [9, 15] | Redroot pigweed plant response rating [9, 21] | Nutsedge plant response rating [10, 14] | Soybean plant response rating [11, 17] | Blackgrass plant response rating [12, 14] | Wild oats plant response rating [13, 14] | Plant response rating, Wild oats [13, 20]
8: Rape plant response rating [1, 18] | Giant foxtail plant response rating [5, 15] | Giant foxtail plant response rating (0 to 10 scale) [5, 16] | Giant foxtail plant response rating [5, 19] | Plant response rating, Blackgrass [12, 20] | Wild oats plant response rating [13, 17]
10: Velvetleaf plant response rating [3, 18] | Giant foxtail plant response rating [5, 18] | Bedstraw plant response rating [6, 18] | Blackgrass plant response rating [12, 18]
9: B. signalgrass plant response rating [4, 18] | Giant foxtail plant response rating [5, 14] | Giant foxtail plant response rating [5, 17] | Plant response rating, Giant foxtail [5, 20] | Giant foxtail plant response rating [5, 21] | Bedstraw plant response rating [6, 17] | Nutsedge plant response rating [10, 18] | Blackgrass plant response rating [12, 17] | Blackgrass plant response rating [12, 21] | Wild oats plant response rating [13, 18]
6: Morningglory plant response rating [2, 14] | Plant response rating, Morningglory [2, 20] | Velvetleaf plant response rating [3, 17] | Wheat plant response rating [7, 21] | Redroot pigweed plant response rating (0 to 10 scale) [9, 16] | Soybean plant response rating [11, 21] | Blackgrass plant response rating (0 to 10 scale) [12, 16]
7: Morningglory plant response rating [2, 21] | B. signalgrass plant response rating [4, 17] | B. signalgrass plant response rating ([4]; Rate 500 g/ha, Postemergence, scale of 0 to 10 where 0 is no effect and 10 is complete control) | Bedstraw plant response rating [6, 22] | Redroot pigweed plant response rating [9, 17] | Redroot pigweed plant response rating [9, 18]
4: Velvetleaf plant response rating (0 to 10 scale) [3, 16] | Plant response rating, B. signalgrass [4, 20] | Wheat plant response rating [7, 18] | Nutsedge plant response rating [10, 21] | Soybean plant response rating [11, 18] | Plant response rating, Soybean [11, 20]
5: Wild oats plant response rating (0 to 10 scale) [13, 16]
0: Rape plant response rating [1, 14] | Rape plant response rating [1, 15] | Rape plant response rating (0 to 10 scale) [1, 16] | Rape plant response rating [1, 17] | Rape plant response rating [1, 19] | Plant response rating, Rape [1, 20] | Rape plant response rating [1, 21] | Morningglory plant response rating [2, 15] | Morningglory plant response rating (0 to 10 scale) [2, 16] | Morningglory plant response rating [2, 17] | B. signalgrass plant response rating [4, 15] | B. signalgrass plant response rating [4, 19] | Bedstraw plant response rating [6, 14] | Bedstraw plant response rating [6, 15] | Bedstraw plant response rating (0 to 10 scale) [6, 16] | Bedstraw plant response rating [6, 19] | Wheat plant response rating [7, 15] | Wheat plant response rating (0 to 10 scale) [7, 16] | Wheat plant response rating [7, 19] | Cocklebur plant response rating [8, 14] | Cocklebur plant response rating [8, 15] | Cocklebur plant response rating (0 to 10 scale) [8, 16] | Cocklebur plant response rating [8, 18] | Cocklebur plant response rating [8, 19] | Plant response rating, Cocklebur [8, 20] | Cocklebur plant response rating [8, 21] | Redroot pigweed plant response rating [9, 14] | Redroot pigweed plant response rating [9, 19] | Plant response rating, Redroot pigweed [9, 20] | Nutsedge plant response rating [10, 15] | Nutsedge plant response rating (0 to 10 scale) [10, 16] | Nutsedge plant response rating [10, 17] | Nutsedge plant response rating [10, 19] | Soybean plant response rating [11, 15] | Soybean plant response rating (0 to 10 scale) [11, 16] | Blackgrass plant response rating [12, 19] | Wild oats plant response rating [13, 19]
3: Morningglory plant response rating [2, 19] | Velvetleaf plant response rating [3, 15] | Plant response rating, Velvetleaf [3, 20] | Velvetleaf plant response rating [3, 21] | B. signalgrass plant response rating [4, 14] | B. signalgrass plant response rating (0 to 10 scale) [4, 16] | Plant response rating, Nutsedge [10, 20] | Soybean plant response rating [11, 14] | Soybean plant response rating [11, 19] | Blackgrass plant response rating [12, 15] | Wild oats plant response rating [13, 15] | Wild oats plant response rating [13, 21]

CC(C)N(C(=O)n1oc(=O)n([C@@H](C)c2ccccc2)c1=O)c1ccccc1 [Compound 173]
9: Giant foxtail plant response rating (0 to 10 scale) [5, 16] | Giant foxtail plant response rating [5, 17]
3: B. signalgrass plant response rating [4, 17] | Soybean plant response rating [11, 18] | Wild oats plant response rating [13, 18]
0: Rape plant response rating [1, 14] | Rape plant response rating [1, 23] | Rape plant response rating (0 to 10 scale) [1, 16] | Rape plant response rating [1, 17] | Rape plant response rating [1, 18] | Rape plant response rating [1, 19] | Plant response rating, Rape [1, 20] | Rape plant response rating [1, 21] | Morningglory plant response rating [2, 23] | Morningglory plant response rating (0 to 10 scale) [2, 16] | Morningglory plant response rating [2, 17] | Morningglory plant response rating [2, 18] | Velvetleaf plant response rating [3, 23] | Velvetleaf plant response rating (0 to 10 scale) [3, 16] | Velvetleaf plant response rating [3, 17] | Velvetleaf plant response rating [3, 18] | Plant response rating, Velvetleaf [3, 20] | Velvetleaf plant response rating [3, 21] | B. signalgrass plant response rating [4, 14] | B. signalgrass plant response rating [4, 23] | B. signalgrass plant response rating (0 to 10 scale) [4, 16] | B. signalgrass plant response rating [4, 19] | Plant response rating, B. signalgrass [4, 20] | B. signalgrass plant response rating [4, 22] | Giant foxtail plant response rating [5, 14] | Giant foxtail plant response rating [5, 19] | Plant response rating, Giant foxtail [5, 20] | Giant foxtail plant response rating [5, 21] | Bedstraw plant response rating [6, 14] | Bedstraw plant response rating [6, 23] | Bedstraw plant response rating (0 to 10 scale) [6, 16] | Bedstraw plant response rating [6, 17] | Bedstraw plant response rating [6, 18] | Bedstraw plant response rating [6, 19] | Wheat plant response rating [7, 23] | Wheat plant response rating (0 to 10 scale) [7, 16] | Wheat plant response rating [7, 17] | Wheat plant response rating [7, 18] | Plant response rating, Wheat [7, 20] | Wheat plant response rating [7, 21] | Cocklebur plant response rating [8, 14] | Cocklebur plant response rating [8, 23] | Cocklebur plant response rating (0 to 10 scale) [8, 16] | Cocklebur plant response rating [8, 17] | Cocklebur plant response rating [8, 18] | Cocklebur plant response rating [8, 19] | Redroot pigweed plant response rating [9, 14] | Redroot pigweed plant response rating [9, 23] | Redroot pigweed plant response rating (0 to 10 scale) [9, 16] | Redroot pigweed plant response rating [9, 17] | Redroot pigweed plant response rating [9, 19] | Plant response rating, Redroot pigweed [9, 20] | Redroot pigweed plant response rating [9, 21] | Nutsedge plant response rating [10, 14] | Nutsedge plant response rating [10, 23] | Nutsedge plant response rating (0 to 10 scale) [10, 16] | Nutsedge plant response rating [10, 17] | Nutsedge plant response rating [10, 18] | Nutsedge plant response rating [10, 19] | Plant response rating, Nutsedge [10, 20] | Nutsedge plant response rating [10, 21] | Soybean plant response rating [11, 23] | Soybean plant response rating (0 to 10 scale) [11, 16] | Soybean plant response rating [11, 17] | Blackgrass plant response rating [12, 14] | Blackgrass plant response rating [12, 23] | Blackgrass plant response rating (0 to 10 scale) [12, 16] | Blackgrass plant response rating [12, 17] | Blackgrass plant response rating [12, 19] | Wild oats plant response rating [13, 23] | Wild oats plant response rating (0 to 10 scale) [13, 16] | Plant response rating, Wild oats [13, 20] | Wild oats plant response rating [13, 21]
4: B. signalgrass plant response rating [4, 18] | Plant response rating, Bedstraw [6, 20] | Soybean plant response rating [11, 21]
6: Giant foxtail plant response rating [5, 23] | Blackgrass plant response rating [12, 18]
1: Plant response rating, Cocklebur [8, 20]
7: Morningglory plant response rating [2, 19]
2: Cocklebur plant response rating [8, 21] | Soybean plant response rating [11, 14] | Soybean plant response rating [11, 19] | Plant response rating, Soybean [11, 20] | Plant response rating, Blackgrass [12, 20] | Blackgrass plant response rating [12, 21] | Wild oats plant response rating [13, 17]
10: Morningglory plant response rating [2, 14] | Plant response rating, Morningglory [2, 20] | Morningglory plant response rating [2, 21] | Giant foxtail plant response rating [5, 18]
5: Redroot pigweed plant response rating [9, 18]
